Entries after “also recorded” stand apart in the source; their conditions may differ.
Legend:
[1] = test system: double-stranded DNA (cDNA extracted from HeLa cells, b-actin primer); assay: Compound analysis through real-time PCR by intercalating method (double-stranded DNA binding dyes); assay type: biochemical; settings: for fluorescence signal / fluorescence intensity during DNA synthesis (FIG. 1): 1 uL of 200 uM dye in 20 uL reaction, fluorescence wavelength of 497 nm detected; for Cq value (FIG. 3): 45 cycles, HeLa cDNA template
Procedure: Compounds 8, 9, 10, 15, 16, and 17 were dissolved in dimethyl sulfoxide to prepare 5 mM of a stock solution. The prepared stock solution was diluted in a Tris-EDTA buffer (pH 7.5) and prepared at a concentration of 200 uM.
For Reference material 1, 10,000× of the stock solution was diluted to a concentration of 20× through a Tris-EDTA buffer (pH 7.5). For Reference material 2, 20,000× of the stock solution was diluted to a concentration of 20× through a Tris-EDTA buffer (pH 7.5).
Reference materials 1 (Evagreen) and 2 (Invitrogen Sybr Green) and Compounds 8, 9, 10, 15, 16, and 17 were compared and verified by an intercalating method using a double-stranded DNA binding dyes through real-time PCR. cDNA extracted from HeLa cells was used, and b-actin (Forward 5′-CATCGAGCACGGCATCGTCA-3′, Reverse 5′-TAGCACAGCCTGGATAGCAAC-3′) was used as a primer. Real-time PCR reaction was performed using a CFX96 touch real-time PCR detection system (BIO-RAD). The PCR mixture consisted of a total 20 uL of reaction solution containing 1 uL of a forward primer, 1 uL of a reverse primer, 10 uL of a PCR master mix (TAKARA), 1 uL of a reference material and each compound (Compounds 8, 9, 10, 15, 16, 17), and 1 uL of template cDNA. PCR conditions were as follows: (a) In a pre-denaturing step, 1 minute at 95° C. (b) 45 cycles are configured as a cycle consisting of at 95° C. for 15 seconds, 58° C. for 30 seconds and 72° C. for 30 seconds, and a fluorescence wavelength of 497 nm was detected in a cycle of 30 seconds at 72° C.

[2] = Stability analysis: storage in incubator at 60° C. for 3 days, then real-time PCR fluorescence; assay type: physicochemical; settings: for change in fluorescence intensity after reaction at 60° C. for 3 days (FIGS. 11-14): stored in incubator at 60° C. for 3 days, real-time PCR for each template concentration
Procedure: Stability analysis was performed by storing Reference materials 1 (Evagreen) and 2 (Invitrogen Sybr Green) and Compound 16 in an incubator at 60° C. The three materials were stored in an incubator at 60° C. for 3 days, and the fluorescence signals for each template concentration were analyzed by real-time PCR analysis as in (1) above, and the PCR product was electrophoresed to analyze whether normal DNA synthesis was achieved. After real-time-PCR, synthetic DNA and a 6× Loading dye (BioActs) were mixed, and then electrophoresis was performed for 35 minutes on a 2% agarose gel (Simga-aldrich).

With `C=CS(=O)(=O)CCNC(=O)CCCN(C)C1=C/C(=C\c2oc3ccccc3[n+]2C)c2ccccc2N1c1ccccc1` [Compound 8] the “fluorescence signal / fluorescence intensity during DNA synthesis (FIG. 1)” value [1] was “not strongly observed” and the “Cq value (FIG. 3)” value [1] was “not much confirmed”.

In the case of `CN(C)CCCNC(=O)CCCN(C)C1=C/C(=C\c2oc3ccccc3[n+]2C)c2ccccc2N1c1ccccc1` [Compound 9], the “fluorescence signal / fluorescence intensity during DNA synthesis (FIG. 1)” value [1] is reported as “not strongly observed” and the “Cq value (FIG. 3)” value [1] is reported as “not much confirmed”.

With `CCCCCCCCNC(=O)CCCN(C)C1=C/C(=C\c2oc3ccccc3[n+]2C)c2ccccc2N1c1ccccc1` [Compound 10] the “fluorescence signal / fluorescence intensity during DNA synthesis (FIG. 1)” value [1] was “not strongly observed” and the “Cq value (FIG. 3)” value [1] was “not much confirmed”.

With `C=CS(=O)(=O)CCNC(=O)CCCN(C)C1=C/C(=C\c2sc3ccccc3[n+]2C)c2ccccc2N1c1ccccc1` [Compound 15] the “fluorescence signal / fluorescence intensity during DNA synthesis (FIG. 1)” value [1] was “emit visible fluorescence; also recorded: not much strong”.

In the case of `CN(C)CCCNC(=O)CCCN(C)C1=C/C(=C\c2sc3ccccc3[n+]2C)c2ccccc2N1c1ccccc1` [Compound 16], the “stability compared with Reference material 2” value ([2]; 60° C. for 3 days) is reported as “more stable material than Reference material 2”, the “change in fluorescence intensity after reaction at 60° C. for 3 days (FIGS. 11-14)” value [2] is reported as “no significant change” and the “fluorescence signal / fluorescence intensity during DNA synthesis (FIG. 1)” value [1] is reported as “emit visible fluorescence; also recorded: very strong”. For the same compound, the “Cq value (FIG. 3)” value [1] was “fastest”, the “Cq value relative to Reference material 1 (FIG. 6)” value ([1]; compared with Evagreen) was “faster than that of Reference material 1” and the “fluorescence intensity relative to Reference materials 1 and 2 (FIG. 4)” value ([1]; compared with Evagreen and Sybr Green at 20×) was “two times higher”.

In the case of `CCCCCCCCNC(=O)CCCN(C)C1=C/C(=C\c2oc3ccccc3[n+]2C)c2ccccc2N1c1ccccc1` [Compound 17], the “fluorescence signal / fluorescence intensity during DNA synthesis (FIG. 1)” value [1] is reported as “emit visible fluorescence; also recorded: not much strong” and the “Cq value (FIG. 3)” value [1] is reported as “hardly confirmed”.

For `CCCN(CCCN(C)C)c1cc(/C=C2/Sc3ccccc3N2C)c2ccccc2[n+]1-c1ccccc1` [Reference material 2, reference compound], the “change in fluorescence intensity after reaction at 60° C. for 3 days (FIGS. 11-14)” value [2] was “decreased by about half”.
